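Cultured in 96-well plates, cells were exposed to test compound for 48 hours across five concentrations. GI50 = concentration required for 50% inhibition of growth. TGI marks complete inhibition of growth.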
Columns and labels:
Assay in all cases: NCI tumour cell line growth inhibition, 48 h
786-0 renal = system: 786-0 renal
A498 renal = system: A498 renal
A549 NSCLC = system: A549 NSCLC
ACHN renal = system: ACHN renal
BT-549 breast = system: BT-549 breast
CAKI-1 renal = system: CAKI-1 renal
CCRF-CEM leukemia = system: CCRF-CEM leukemia
COLO 205 colon = system: COLO 205 colon
DU-145 prostate = system: DU-145 prostate
EKVX NSCLC = system: EKVX NSCLC
HCC-2998 colon = system: HCC-2998 colon
HCT-116 colon = system: HCT-116 colon
HCT-15 colon = system: HCT-15 colon
HL-60(TB) leukemia = system: HL-60(TB) leukemia
HOP-62 NSCLC = system: HOP-62 NSCLC
HOP-92 NSCLC = system: HOP-92 NSCLC
HS 578T breast = system: HS 578T breast
HT29 colon = system: HT29 colon
K-562 leukemia = system: K-562 leukemia
KM12 colon = system: KM12 colon
LOX IMVI melanoma = system: LOX IMVI melanoma
M14 melanoma = system: M14 melanoma
MALME-3M melanoma = system: MALME-3M melanoma
MCF7 breast = system: MCF7 breast
MDA-MB-231 breast = system: MDA-MB-231 breast
MDA-MB-435 = system: MDA-MB-435
MOLT-4 leukemia = system: MOLT-4 leukemia
NCI-H226 lung = system: NCI-H226 lung
NCI-H23 lung = system: NCI-H23 lung
NCI-H460 lung = system: NCI-H460 lung
NCI-H522 lung = system: NCI-H522 lung
NCI/ADR-RES ovarian = system: NCI/ADR-RES ovarian
OVCAR-3 ovarian = system: OVCAR-3 ovarian
OVCAR-4 ovarian = system: OVCAR-4 ovarian
OVCAR-5 ovarian = system: OVCAR-5 ovarian
OVCAR-8 ovarian = system: OVCAR-8 ovarian
PC-3 prostate = system: PC-3 prostate
RPMI-8226 leukemia = system: RPMI-8226 leukemia
RXF 393 renal = system: RXF 393 renal
SF-268 CNS = system: SF-268 CNS
SF-295 CNS = system: SF-295 CNS
SF-539 CNS = system: SF-539 CNS
SK-MEL-28 melanoma = system: SK-MEL-28 melanoma
SK-MEL-5 melanoma = system: SK-MEL-5 melanoma
SK-OV-3 ovarian = system: SK-OV-3 ovarian
SN12C renal = system: SN12C renal
SNB-19 CNS = system: SNB-19 CNS
SNB-75 CNS = system: SNB-75 CNS
SR leukemia = system: SR leukemia
SW-620 colon = system: SW-620 colon
T-47D breast = system: T-47D breast
TK-10 renal = system: TK-10 renal
U251 CNS = system: U251 CNS
UACC-257 melanoma = system: UACC-257 melanoma
UACC-62 melanoma = system: UACC-62 melanoma
UO-31 renal = system: UO-31 renal
IGROV1 ovarian = system: IGROV1 ovarian

O=c1oc2ccccc2c(Cl)c1Cl
GI50 (786-0 renal): 5.82 µM | TGI (786-0 renal): 18.7 µM | GI50 (A498 renal): 10.4 µM | TGI (A498 renal): 22.4 µM | GI50 (A549 NSCLC): 15.5 µM | TGI (A549 NSCLC): 32.2 µM | GI50 (ACHN renal): 2.49 µM | TGI (ACHN renal): 5.92 µM | GI50 (BT-549 breast): 2.63 µM | TGI (BT-549 breast): 9.33 µM | GI50 (CAKI-1 renal): 2.69 µM | TGI (CAKI-1 renal): 8.97 µM | GI50 (CCRF-CEM leukemia): 0.595 µM | TGI (CCRF-CEM leukemia): 30 µM | GI50 (COLO 205 colon): 2.19 µM | TGI (COLO 205 colon): 4.84 µM | GI50 (DU-145 prostate): 3.02 µM | TGI (DU-145 prostate): 12.1 µM | GI50 (EKVX NSCLC): 11.2 µM | TGI (EKVX NSCLC): 27.1 µM | GI50 (HCC-2998 colon): 9.86 µM | TGI (HCC-2998 colon): 21.8 µM | GI50 (HCT-116 colon): 3.49 µM | TGI (HCT-116 colon): 13.6 µM | GI50 (HCT-15 colon): 2.24 µM | TGI (HCT-15 colon): 6.28 µM | GI50 (HL-60(TB) leukemia): 4.09 µM | TGI (HL-60(TB) leukemia): 34.3 µM | GI50 (HOP-62 NSCLC): 3.49 µM | TGI (HOP-62 NSCLC): 14.2 µM | GI50 (HOP-92 NSCLC): 5.71 µM | TGI (HOP-92 NSCLC): 18.6 µM | GI50 (HS 578T breast): 2.69 µM | TGI (HS 578T breast): 9.71 µM | GI50 (HT29 colon): 2.25 µM | TGI (HT29 colon): 4.85 µM | GI50 (K-562 leukemia): 2.63 µM | TGI (K-562 leukemia): > 100 µM | GI50 (KM12 colon): 3.61 µM | TGI (KM12 colon): 13.7 µM | GI50 (LOX IMVI melanoma): 1.76 µM | TGI (LOX IMVI melanoma): 12.4 µM | GI50 (M14 melanoma): 3.47 µM | TGI (M14 melanoma): 14.1 µM | GI50 (MALME-3M melanoma): 2.23 µM | TGI (MALME-3M melanoma): 12.4 µM | GI50 (MCF7 breast): 2.83 µM | TGI (MCF7 breast): 10.6 µM | GI50 (MDA-MB-231 breast): 2.48 µM | TGI (MDA-MB-231 breast): 6.2 µM | GI50 (MDA-MB-435): 3.32 µM | TGI (MDA-MB-435): 11.4 µM | GI50 (MOLT-4 leukemia): 3.37 µM | TGI (MOLT-4 leukemia): > 100 µM | GI50 (NCI-H226 lung): 10 µM | TGI (NCI-H226 lung): 24.5 µM | GI50 (NCI-H23 lung): 5.56 µM | TGI (NCI-H23 lung): 18.9 µM | GI50 (NCI-H460 lung): 3.21 µM | TGI (NCI-H460 lung): 12.1 µM | GI50 (NCI-H522 lung): 3.46 µM | TGI (NCI-H522 lung): 15.5 µM | GI50 (NCI/ADR-RES ovarian): 5.85 µM | TGI (NCI/ADR-RES ovarian): 21.4 µM | GI50 (OVCAR-3 ovarian): 1.94 µM | TGI (OVCAR-3 ovarian): 4.38 µM | GI50 (OVCAR-4 ovarian): 6.76 µM | TGI (OVCAR-4 ovarian): 19.6 µM | GI50 (OVCAR-5 ovarian): 14.7 µM | TGI (OVCAR-5 ovarian): 30.1 µM | GI50 (OVCAR-8 ovarian): 4.23 µM | TGI (OVCAR-8 ovarian): 17.4 µM | GI50 (PC-3 prostate): 7.51 µM | TGI (PC-3 prostate): 24.5 µM | GI50 (RPMI-8226 leukemia): 2.71 µM | TGI (RPMI-8226 leukemia): 8.66 µM | GI50 (RXF 393 renal): 1.95 µM | TGI (RXF 393 renal): 4.31 µM | GI50 (SF-268 CNS): 3.91 µM | TGI (SF-268 CNS): 16.3 µM | GI50 (SF-295 CNS): 11.7 µM | TGI (SF-295 CNS): 28.4 µM | GI50 (SF-539 CNS): 4.07 µM | TGI (SF-539 CNS): 15.3 µM | GI50 (SK-MEL-28 melanoma): 2.68 µM | TGI (SK-MEL-28 melanoma): 7.76 µM | GI50 (SK-MEL-5 melanoma): 4.94 µM | TGI (SK-MEL-5 melanoma): 16.9 µM | GI50 (SK-OV-3 ovarian): 13.3 µM | TGI (SK-OV-3 ovarian): 87.3 µM | GI50 (SN12C renal): 4.58 µM | TGI (SN12C renal): 16.8 µM | GI50 (SNB-19 CNS): 10.5 µM | TGI (SNB-19 CNS): 22.7 µM | GI50 (SNB-75 CNS): 2.85 µM | TGI (SNB-75 CNS): 12.9 µM | GI50 (SR leukemia): 2.29 µM | TGI (SR leukemia): 65.8 µM | GI50 (SW-620 colon): 1.51 µM | TGI (SW-620 colon): 5.6 µM | GI50 (T-47D breast): 2.38 µM | TGI (T-47D breast): 6.87 µM | GI50 (TK-10 renal): 1.88 µM | TGI (TK-10 renal): 3.7 µM | GI50 (U251 CNS): 2.85 µM | TGI (U251 CNS): 8.86 µM | GI50 (UACC-257 melanoma): 2.24 µM | TGI (UACC-257 melanoma): 5.39 µM | GI50 (UACC-62 melanoma): 4.82 µM | TGI (UACC-62 melanoma): 18.1 µM | GI50 (UO-31 renal): 1.83 µM | TGI (UO-31 renal): 4.73 µM

CO/N=C1\CC(C)N2C(=O)C(C(C)C)NC(=O)C(NC(=O)c3c4nc5c(C(=O)NC6C(=O)NC(C(C)C)C(=O)N7C(C)CC(O)C7C(=O)N(C)CC(=O)N(C)C(C(C)C)C(=O)OC6C)ccc(C)c5oc-4c(C)c(=O)c3N)C(CO)OC(=O)C(C)N(C)C(=O)CN(C)C(=O)C12 (stereo unspecified)
TGI (BT-549 breast): 17 µM | TGI (HOP-92 NSCLC): 16.9 µM | TGI (NCI-H226 lung): 3.81 µM | TGI (NCI-H23 lung): 14.5 µM | TGI (UACC-257 melanoma): 4.31 µM

O=C1c2[nH]cc(CN[C@@H]3CCCN3)c2C(=O)c2c1c(O)c1ccccc1c2O
GI50 (A498 renal): 0.544 µM | TGI (A498 renal): 16.3 µM | GI50 (BT-549 breast): 4.67 µM | TGI (BT-549 breast): 38.4 µM | GI50 (CAKI-1 renal): 0.927 µM | TGI (CAKI-1 renal): 2.87 µM | GI50 (DU-145 prostate): 0.786 µM | TGI (DU-145 prostate): 2.04 µM | GI50 (HOP-92 NSCLC): 0.19 µM | TGI (HOP-92 NSCLC): 1.65 µM | GI50 (IGROV1 ovarian): 0.262 µM | TGI (IGROV1 ovarian): 1.02 µM | GI50 (M14 melanoma): 1.58 µM | TGI (M14 melanoma): 3 µM | GI50 (MALME-3M melanoma): 1.59 µM | TGI (MALME-3M melanoma): 3.07 µM | GI50 (MDA-MB-231 breast): 0.527 µM | TGI (MDA-MB-231 breast): 1.84 µM | GI50 (NCI/ADR-RES ovarian): 3.88 µM | TGI (NCI/ADR-RES ovarian): 30.6 µM | GI50 (PC-3 prostate): 0.358 µM | TGI (PC-3 prostate): 1.51 µM | GI50 (SF-295 CNS): 0.288 µM | TGI (SF-295 CNS): 1.25 µM | GI50 (SF-539 CNS): 1.36 µM | TGI (SF-539 CNS): 2.67 µM | GI50 (SK-OV-3 ovarian): 0.583 µM | TGI (SK-OV-3 ovarian): 1.78 µM | GI50 (TK-10 renal): 1.07 µM | TGI (TK-10 renal): 2.29 µM | GI50 (UACC-62 melanoma): 1.29 µM | TGI (UACC-62 melanoma): 2.58 µM | GI50 (UO-31 renal): 0.261 µM | TGI (UO-31 renal): 1.52 µM

Reference: PubChem BioAssay (NCI)
